Experimental data reported in patent publication US20220363719A1, “Reverse Amide-Linked Melanocortin Receptor-Specific Cyclic Peptides” (Palatin Technologies, Inc., priority 2020, published 2022).
pEC50: −log10 of the molar value. Where a SMILES comes first, the peptide text is derived from it. Bridges are numbered along the chain shown (N, C = ends). [ ]: non-standard residue; d: D form. The star is where a group is joined. ξ: configuration not given here. d1Nal = N[C@H](Cc1cccc2ccccc12)C(=O)O; Nle = CCCC[C@H](N)C(=O)O; Dab = NCC[C@H](N)C(=O)O; ξHyp = O=C(O)C1CC(O)CN1; Dap = NC[C@H](N)C(=O)O; Hexanoyl = CCCCCC(=O)*; Ava = NCCCCC(=O)O; Bn = c1ccc(C*)cc1; βAla = NCCC(=O)O

Experiments:
Format in all cases: cell-based
mMC1r [1] = target: T1, mMC1r (Mus musculus, UniProt Q01727); assay: cAMP agonist activity assay performed at CEREP (HTRF), MC1; settings: determined by CEREP, B16-F1 cells; for pEC50: cAMP HTRF; for Emax: control NDP-alpha-MSH, read-out: Emax percent mMC1r* (percent of the maximal response obtained with the positive control)
Method: (§1) Evaluation of the agonist activity of compounds at the melanocortin receptors was determined by measuring their effects on cAMP production using the HTRF detection method at CEREP (Eurofins CEREP SA, Celle-Lévescault, France). The cells were suspended in HBSS buffer (Invitrogen) complemented with 20 mM HEPES (pH 7.4) and 500 μM IBMX, then distributed in microplates and incubated in the presence of HBSS (basal control), the test compound or the reference agonist. Incubation time, temperature, cell number, reference agonist and cell line information are included in the Table 1 below. For stimulated control measurement, separate assay wells contain reference compound. Following incubation, the cells are lysed and the fluorescence acceptor (D2-labeled cAMP) and fluorescence donor (anti-cAMP antibody labeled with europium cryptate) were added. After 60 minutes at room temperature, the fluorescence transfer was measured at excitation wavelength 337 nm and emission wavelengths 620 and 665 nm using a microplate reader (Envision, Perkin Elmer). The cAMP concentration was determined by dividing the signal measured at 665 nm by that measured at 620 nm (ratio).
(§2) The results are expressed as a percent of the control response to 1 μM of the reference. The standard reference agonist is tested in each experiment at several concentrations to generate a concentration-response curve from which its EC50 value is calculated.

hMC5r [2] = target: T2, hMC5r (Homo sapiens, UniProt P33032); assay: cAMP agonist activity assay performed at CEREP (HTRF), MC5; settings: determined by CEREP, CHO-K1 cells; for pEC50: cAMP HTRF; for Emax: control Alpha-MSH, read-out: Emax percent hMC5r* (percent of the maximal response obtained with the positive control)
T2 construct: Eurofins CEREP SA
Method: as §1, §2

hMC3r [3] = target: T3, hMC3r (Homo sapiens, UniProt P41968); assay: cAMP agonist activity assay performed at CEREP (HTRF), MC3; set-up: expressed in transfected cells; settings: determined by CEREP, CHO-K1 cells
Method: as §1
(§3) The results are expressed as a percent of the control response to 1 μM of the reference. […]

hMC4r [4] = target: T4, hMC4r (Homo sapiens, UniProt P32245); assay: cAMP agonist activity assay performed at CEREP (HTRF), MC4; set-up: expressed in transfected cells; settings: determined by CEREP, CHO-K1 cells
Method: as §1, §3

hMC3r [5] = target: T3, hMC3r; assay: Alternative assay for agonist activity (intracellular cAMP), HEK-293 cells, recombinant MC3r; set-up: expressed in transfected cells; host or cells: HEK-293; settings: for Emax: HEK293, not CEREP, reference NDP-α-MSH, read-out: Emax percent hMC3r (percent of the maximal response obtained with the positive control); for pEC50: not CEREP, cAMP HTRF
Method: (§4) Accumulation of intracellular cAMP was examined as a measure of the ability of the peptides to elicit a functional response in either HEK-293 cells that express recombinant MC3r or MC4r or B16-F10 (mouse) and HBL (human) cell lines that express native MC1 r. Confluent cells were detached from culture plates by incubation in enzyme-free cell dissociation buffer. Dispersed cells were suspended in Hank's Balanced Salt Solution containing 10 mM HEPES (pH 7.5), 1 mM MgCl2, 1 mM glutamine, 0.5% albumin and 0.3 mM 3-isobutyl-1-methyl-xanthine (IBMX), a phosphodiesterase inhibitor. The cells were dispensed into 96-well plates at a density of 0.5×10^5 cells per well and pre-incubated for 10 minutes. Cells were exposed for 15 minutes at 37° C. to peptides dissolved in DMSO (final DMSO concentration of 1%) at a concentration range of 0.05-5000 nM in a total assay volume of 200 μL. NDP-α-MSH was used as the reference agonist. cAMP levels were determined by an HTRF® cAMP cell-based assay system from Cisbio Bioassays utilizing cryptate-labeled anti-cAMP and D2-labeled cAMP, with plates read on a Perkin-Elmer Victor plate reader at […]. Data analysis was performed by nonlinear regression analysis with Graph-Pad Prism® software. The maximum efficacies of the test peptides were compared to that achieved by the reference melanocortin agonist NDP-α-MSH.

hMC4r [6] = target: T4, hMC4r; assay: Alternative assay for agonist activity (intracellular cAMP), HEK-293 cells, recombinant MC4r; set-up: expressed in transfected cells; host or cells: HEK-293; settings: for Emax: HEK293, not CEREP, reference NDP-α-MSH, read-out: Emax percent hMC4r (percent of the maximal response obtained with the positive control); for pEC50: not CEREP, cAMP HTRF
Method: as §4

mMC1r [7] = target: T1, mMC1r; assay: Alternative assay for agonist activity (intracellular cAMP), B16-F10 cells, native MC1r; set-up: B16-F10 (mouse) and HBL (human) cell lines that express native MC1 r; endogenous in cells; host or cells: B16-F10 mouse melanoma cells; settings: not CEREP; for pEC50: cAMP HTRF; for Emax: reference NDP-α-MSH, read-out: Emax percent mMC1r (percent of the maximal response obtained with the positive control)
Method: as §4

hMC5r [8] = target: T2, hMC5r; assay: Agonist activity (EC50/Emax) at hMC5r, not determined by CEREP; settings: for Emax: read-out: Emax percent hMC5r (percent of the maximal response obtained with the positive control)
hMC1r = target: T5, hMC1r (Homo sapiens, UniProt Q01726); assay: Alternative assay for agonist activity (intracellular cAMP), HBL cells, native MC1r; settings: not CEREP; for pEC50: cAMP HTRF; for Emax: reference NDP-α-MSH, read-out: Emax percent hMC1r (percent of the maximal response obtained with the positive control)
T5 construct: B16-F10 (mouse) and HBL (human) cell lines that express native MC1 r; endogenous in cells; host or cells: HBL human melanoma cells
Method: as §4

T1 sequence (Q01727 whole entry): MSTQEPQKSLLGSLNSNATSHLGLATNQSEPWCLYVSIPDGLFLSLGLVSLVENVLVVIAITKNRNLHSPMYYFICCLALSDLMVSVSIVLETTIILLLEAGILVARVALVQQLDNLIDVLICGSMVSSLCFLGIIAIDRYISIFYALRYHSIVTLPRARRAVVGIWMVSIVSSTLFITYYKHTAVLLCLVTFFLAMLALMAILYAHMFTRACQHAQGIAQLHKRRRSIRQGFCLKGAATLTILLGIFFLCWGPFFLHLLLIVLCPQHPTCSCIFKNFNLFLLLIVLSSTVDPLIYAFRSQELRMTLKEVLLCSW
T4 sequence (P32245 whole entry): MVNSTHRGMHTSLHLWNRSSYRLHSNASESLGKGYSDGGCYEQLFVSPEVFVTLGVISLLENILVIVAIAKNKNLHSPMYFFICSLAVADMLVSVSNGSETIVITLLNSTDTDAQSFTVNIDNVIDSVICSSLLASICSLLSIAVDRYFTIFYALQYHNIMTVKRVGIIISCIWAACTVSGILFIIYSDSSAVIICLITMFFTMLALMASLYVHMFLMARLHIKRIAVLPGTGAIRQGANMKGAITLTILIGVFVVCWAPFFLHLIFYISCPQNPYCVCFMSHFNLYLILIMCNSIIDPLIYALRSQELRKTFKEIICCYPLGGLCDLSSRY
T5 sequence (Q01726 whole entry): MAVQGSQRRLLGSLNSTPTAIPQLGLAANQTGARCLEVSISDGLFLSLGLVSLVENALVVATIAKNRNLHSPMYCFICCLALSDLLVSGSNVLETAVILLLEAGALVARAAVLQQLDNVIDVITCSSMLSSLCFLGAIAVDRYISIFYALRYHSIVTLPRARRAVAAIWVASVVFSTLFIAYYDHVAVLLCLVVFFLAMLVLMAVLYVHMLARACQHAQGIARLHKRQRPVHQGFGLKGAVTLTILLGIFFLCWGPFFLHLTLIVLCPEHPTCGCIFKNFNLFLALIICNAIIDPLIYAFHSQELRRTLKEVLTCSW
T2 sequence (P33032 whole entry): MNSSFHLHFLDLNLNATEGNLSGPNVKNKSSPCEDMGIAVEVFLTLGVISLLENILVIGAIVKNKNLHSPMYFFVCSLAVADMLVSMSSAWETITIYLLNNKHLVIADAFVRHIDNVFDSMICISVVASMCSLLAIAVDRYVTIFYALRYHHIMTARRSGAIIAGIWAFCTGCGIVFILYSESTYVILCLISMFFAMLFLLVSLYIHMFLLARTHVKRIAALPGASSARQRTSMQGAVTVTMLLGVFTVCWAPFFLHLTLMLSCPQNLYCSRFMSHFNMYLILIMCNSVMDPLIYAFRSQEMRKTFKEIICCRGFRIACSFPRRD
T3 sequence (P41968 whole entry): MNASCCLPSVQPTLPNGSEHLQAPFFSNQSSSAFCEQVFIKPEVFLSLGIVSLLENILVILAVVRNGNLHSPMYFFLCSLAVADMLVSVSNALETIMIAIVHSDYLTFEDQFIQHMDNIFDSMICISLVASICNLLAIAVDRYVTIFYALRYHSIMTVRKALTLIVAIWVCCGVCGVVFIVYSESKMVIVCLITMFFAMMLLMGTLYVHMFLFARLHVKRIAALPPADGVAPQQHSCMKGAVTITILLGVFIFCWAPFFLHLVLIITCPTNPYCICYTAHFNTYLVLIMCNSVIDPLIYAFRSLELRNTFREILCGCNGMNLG

SMILES | pEC50 (mMC1r [1]) | Emax (mMC1r [1]) [%] | pEC50 (hMC5r [2]) | Emax (hMC5r [2]) [%] | pEC50 (hMC3r [3]; cAMP HTRF) | Emax (hMC3r [3]; control NDP-alpha-MSH, read-out: Emax percent hMC3r* (percent of the maximal response obtained with the positive control)) [%] | pEC50 (hMC4r [4]; cAMP HTRF) | Emax (hMC4r [4]; control NDP-alpha-MSH, read-out: Emax percent hMC4r* (percent of the maximal response obtained with the positive control)) [%] | Emax (hMC3r [5]) [%] | pEC50 (hMC3r [5]) | Emax (hMC4r [6]) [%] | pEC50 (hMC4r [6]) | pEC50 (mMC1r [7]) | Emax (mMC1r [7]) [%] | pEC50 (hMC5r [8]) | Emax (hMC5r [8]) [%] | pEC50 (hMC1r) | Emax (hMC1r) [%]
CCCC[C@H](NC(C)=O)C(=O)N[C@H]1CNC(=O)CCNC(=O)[C@H](Cc2c[nH]c3ccccc23)NC(=O)[C@H](CCCNC(=N)N)NC(=O)[C@@H](Cc2cccc3ccccc23)NC(=O)C2CC(OCc3ccccc3)CN2C1=O (some centres unmarked) [Peptide 7] (Ac-[Nle][Dap][ξHyp](Bn)[d1Nal]RW[βAla]; lactam 2-C) | – | – | 8.70 | 97 | – | – | – | – | 7 | < 5.00 | 26 | 8.30 | 7.77 | 74 | 9.00 | 71 | – | –
CC(=O)N[C@@H](CCCNC(=N)N)C(=O)N[C@H]1CCNC(=O)CCCCNC(=O)[C@H](Cc2c[nH]c3ccccc23)NC(=O)[C@H](CCCNC(=N)N)NC(=O)[C@@H](Cc2ccccc2)NC(=O)[C@H](CC(N)=O)NC1=O [Peptide 10] (Ac-R[Dab]N[dF]RW[Ava]; lactam 2-C) | – | – | 5.80 | 71 | – | – | – | – | 63 | 8.22 | 111 | 9.05 | 6.95 | 94 | 6.68 | 54 | – | –
CCCCCC(=O)N[C@H]1CNC(=O)CCCCNC(=O)[C@H](CCCNC(=N)N)NC(=O)[C@@H](Cc2ccccc2)NC(=O)[C@H](Cc2c[nH]cn2)NC1=O [Peptide 19] (Hexanoyl-[Dap]H[dF]R[Ava]; lactam 1-C) | 5.59 | 74 | < 5.00 | 5 | – | – | – | – | 0.5 | < 5.00 | 70 | 5.37 | 6.46 | 80 | – | – | 8.52 | 92

Now those with a higher pEC50 (hMC5r [2]), led by results:

pEC50 (mMC1r [1]) | Emax (mMC1r [1]) [%] | pEC50 (hMC5r [2]) | Emax (hMC5r [2]) [%] | pEC50 (hMC3r [3]; cAMP HTRF) | Emax (hMC3r [3]; control NDP-alpha-MSH, read-out: Emax percent hMC3r* (percent of the maximal response obtained with the positive control)) [%] | pEC50 (hMC4r [4]; cAMP HTRF) | Emax (hMC4r [4]; control NDP-alpha-MSH, read-out: Emax percent hMC4r* (percent of the maximal response obtained with the positive control)) [%] | Emax (hMC3r [5]) [%] | pEC50 (hMC3r [5]) | Emax (hMC4r [6]) [%] | pEC50 (hMC4r [6]) | pEC50 (mMC1r [7]) | Emax (mMC1r [7]) [%] | pEC50 (hMC5r [8]) | Emax (hMC5r [8]) [%] | pEC50 (hMC1r) | Emax (hMC1r) [%] | SMILES
6.59 | 65 | 9.66 | 110 | < 5.00 | 9 | 9.09 | 50 | 12 | < 5.00 | 39 | 9.30 | 8.52 | 58 | – | – | – | – | CCCC[C@H](NC(C)=O)C(=O)N[C@H]1CCCCNC(=O)CNC(=O)[C@H](Cc2c[nH]c3ccccc23)NC(=O)[C@H](CCCNC(=N)N)NC(=O)[C@@H](Cc2cccc3ccccc23)NC(=O)C2CC(OCc3ccccc3)CN2C1=O (some centres unmarked) [Peptide 1] (Ac-[Nle]K[ξHyp](Bn)[d1Nal]RWG; lactam 2-C)
11.00 | 108 | 9.15 | 60 | – | – | – | – | – | – | 102 | 9.05 | – | – | 8.70 | 58 | 9.22 | 106 | CC(=O)N[C@@H](CCCNC(=N)N)C(=O)N[C@H]1CCNC(=O)CCCCNC(=O)[C@H](Cc2c[nH]c3ccccc23)NC(=O)[C@H](CCCNC(=N)N)NC(=O)[C@@H](Cc2ccc(F)cc2)NC(=O)[C@H](Cc2c[nH]cn2)NC1=O [Peptide 16]
